Measured values reported in patent publication US20160115539A1, “USE OF A SLC MAMMALIAN SKIN TRANSPORTER” (GALDERMA RESEARCH & DEVELOPMENT, priority 2013, published 2016).

Tests used:
Format in all cases: cell-based
[1] = test system: SLC47A1 (MATE1); experiment: Effect of Rifampicin on SLC47A1 mRNA expression in human skin organoculture (real time PCR); details: Rifampicin 20 μM, 72 hours, p≦0.05
Description: (§1) Fresh human skin samples from 3 different donors were used and maintained in organoculture. Four skin biopsies of 6 mm diameter were used per well of 6-well plate, filled with long term skin culture medium (Biopredic, France) (FIG. 1). Skin samples were treated with 20 μM Rifampicin during 3 days. In a separate experiment, skin samples were exposed during one hour every day during 3 days to UV lights via a solar simulator (UVA 110 W/m^2; UVB 20 W/m^2). Untreated skin samples were used as control. The culture plates were kept in a cell culture incubator set at 37° C., 5% CO2 and saturated hygrometry. At the end of treatment period gene expression of SLC transporters was measured as described above.
(§2) After homogenization of skin samples or hepatocytes in lysis buffer (Promega), total RNA was isolated using SV Total RNA Isolation System (Promega), in accordance with the instructions provided by the constructor. RNA concentrations were quantified spectrophotometrically. Quantification of mRNA expression of human SLC transporters was performed using TaqMan PCR techniques (Applied Biosystems). Experiments were carried out on a 7500 real time PCR System (Applied Biosystems) using Assay-on-Demand gene expression products. For this, 500 ng of total RNA were reverse-transcribed using the High Capacity RNA to cDNA Master Mix kit (Applied Biosystems).

[2] = test system: SLC47A2 (MATE2); experiment: Effect of Rifampicin on SLC47A2 mRNA expression in human skin organoculture (real time PCR); details: Rifampicin 20 μM, 72 hours
Description: as §1, §2

[3] = test system: SLC47A1 (MATE1); experiment: Effect of Rifampicin on SLC47A1 mRNA expression in human hepatocytes in primary culture (real time PCR); details: Rifampicin 20 μM, 72 hours
Description: as §2

CO[C@H]1/C=C/O[C@@]2(C)Oc3c(C)c(O)c4c(O)c(c(/C=N/N5CCN(C)CC5)c(O)c4c3C2=O)NC(=O)/C(C)=C\C=C\[C@H](C)[C@H](O)[C@@H](C)[C@@H](O)[C@@H](C)[C@H](OC(C)=O)[C@@H]1C [Rifampicin]
decrease in MATE1 expression [1]: 44% | decrease in MATE2 expression [2]: 30% | decrease in expression of SLC47A1 (MATE1) [3]: 48%
